pIC50: −log10 of the molar value.

The test system of the assay is Aβ 42 production. As to the kind of experiment: Quantification of Aβ Peptide in Culture of Neurons from Rat Fetus Brain. The assay is classed as cell-based. The conditions noted are these: Neuron, 72 h; rat primary neuronal culture (cerebral cortex, embryonic day 18 Wistar rats); medium collected three days after addition of the compound; Aβ ELISA; read-out: Effect of reducing Aβ 42 production IC50. As to the method:
Quantification of Aβ Peptide in Culture of Neurons from Rat Fetus Brain
(1) Rat Primary Neuronal Culture
Primary neuronal cultures were prepared from the cerebral cortex of embryonic day 18 Wistar rats (Charles River Japan, Yokohama, Japan). Specifically, the embryos were aseptically removed from pregnant rats under ether anesthesia. The brain was isolated from the embryo and immersed in an ice-cold L-15 medium (Invitrogen Corp. Cat #11415-064, Carlsbad, Calif., USA, or SIGMA L1518, for example). The cerebral cortex was collected from the isolated brain under a stereoscopic microscope. The cerebral cortex fragments collected were enzymatically treated in an enzyme solution containing 0.25% trypsin (Invitrogen Corp. Cat #15050-065, Carlsbad, Calif., USA) and 0.01% DNase (Sigma D5025, St. Louis, Mo., USA) at 37° C. for 30 minutes to disperse the cells. Here, the enzymatic reaction was stopped by adding inactivated horse serum to the solution. The enzymatically treated solution was centrifuged at 1,500 rpm for five minutes to remove the supernatant. 5 to 10 ml of a medium was added to the resulting cell mass. Neurobasal medium (Invitrogen Corp. Cat #21103-049, Carlsbad, Calif., USA) supplemented with 2% B27 supplement (Invitrogen Corp. Cat #17504-044, Carlsbad, Calif., USA), 25 μM 2-mercaptoethanol (2-ME, WAKO Cat #139-06861, Osaka, Japan), 0.5 mM L-glutamine (Invitrogen Corp. Cat #25030-081, Carlsbad, Calif., USA), and Antibiotics-Antimycotics (Invitrogen Corp. Cat #15240-062, Carlsbad, Calif., USA) was used as the medium (Neurobasal/B27/2-ME). However, the above Neurobasal medium not supplemented with 2-ME (Neurobasal/B27) was used for the assay. The cells were redispersed by mild pipetting of the cell mass to which the medium was added. The cell dispersion was filtered through a 40-μm nylon mesh (Cell Strainer, Cat #35-2340, Becton Dickinson Labware, Franklin Lakes, N.J., USA) to remove the remaining cell mass, and thus a neuronal cell suspension was obtained. The neuronal cell suspension was diluted with the medium and then plated in a volume of 100 μl/well at an initial cell density of 5×10^5 cells/cm^2 in a 96-well polystyrene culture plate pre-coated with poly-L or D-lysine (Falcon Cat #35-3075, Becton Dickinson Labware, Franklin Lakes, N.J., USA coated with poly-L-lysine using the method shown below, or BIOCOAT™ cell environments Poly-D-lysine cell ware 96-well plate, Cat #35-6461, Becton Dickinson Labware, Franklin Lakes, N.J., USA). Poly-L-lysine coating was carried out as follows. 100 μg/ml of a poly-L-lysine (SIGMA P2636, St. Louis, Mo., USA) solution was aseptically prepared with a 0.15 M borate buffer (pH 8.5). 100 μl/well of the solution was added to the 96-well polystyrene culture plate and incubated at room temperature for one or more hours or at 4° C. overnight or longer. The coated 96-well polystyrene culture plate was washed with sterile water four or more times, and then dried or rinsed with, for example, sterile PBS or medium, and used for cell plating. The plated cells were cultured in the culture plate at 37° C. in 5% CO2-95% air for one day. Then, the total amount of the medium was replaced with a fresh Neurobasal™/B27/2-ME medium, and then the cells were cultured for further three days.
The drug was added to the culture plate on Day 4 of culture as follows. The total amount of the medium was removed from the wells, and 180 μl/well of Neurobasal medium not containing 2-ME and containing 2% B-27 (Neurobasal/B27) was added thereto. A solution of the test compound in dimethyl sulfoxide (hereinafter abbreviated as DMSO) was diluted with Neurobasal/B27 at 10-fold of the final concentration. 20 μl/well of the dilution was added to and sufficiently mixed with the medium. The final DMSO concentration was 1% or less. Only DMSO was added to the control group.
The cells were cultured for three days after addition of the compound, and the total amount of the medium was collected. […]
Regarding `COc1cc(/C=C/c2nnc(C(C)c3ccc(F)cc3)[nH]2)ccc1-n1cnc(C)c1` (racemic) [Example 31, 3-[1-(4-fluorophenyl)ethyl]-5-{(E)-2-[3-methoxy-4-(4-methyl-1H-imidazol-1-yl)phenyl]vinyl}-4H-[1,2,4]triazole], the pIC50 was 7.48.

For the molecule `COc1cc(/C=C/c2nnc(C(C)c3ccc(F)cc3)[nH]2)ccc1-n1cnc(C)c1` (single isomer, unassigned) [Example 36, (+)-3-[1-(4-fluorophenyl)ethyl]-5-{(E)-2-[3-methoxy-4-(4-methyl-1H-imidazol-1-yl)phenyl]vinyl}-4H-[1,2,4]triazole], the negative-log IC50 (pIC50) was 7.47.

As to `COc1cc(/C=C/c2nc3n(n2)CCCC3c2ccc(F)cc2)ccc1-n1cnc(C)c1` (single isomer, unassigned) [Example 52, (−)-8-(4-fluorophenyl)-2-{(E)-2-[3-methoxy-4-(4-methyl-1H-imidazol-1-yl)phenyl]vinyl}-5,6,7,8-tetrahydro[1,2,4]triazolo[1,5-a]pyridine], the pIC50 was 7.85.

For `COc1cc(/C=C/c2nc3n(n2)CCCC3c2cc(F)c(F)c(F)c2)ccc1-n1cnc(C)c1` (single isomer, unassigned) [Example 54, (−)-2-{(E)-2-[3-methoxy-4-(4-methyl-1H-imidazol-1-yl)phenyl]vinyl}-8-(3,4,5-trifluorophenyl)-5,6,7,8-tetrahydro[1,2,4]triazolo[1,5-a]pyridine], the negative-log IC50 (pIC50) is 7.85.

`COc1cc(/C=C(\F)c2nc3n(n2)CCC[C@@H]3c2cc(F)c(F)c(F)c2)ccc1-n1cnc(C)c1` (single isomer, unassigned) [Example 58, (−)-2-{(Z)-1-fluoro-2-[3-methoxy-4-(4-methyl-1H-imidazol-1-yl)phenyl]vinyl}-8-(3,4,5-trifluorophenyl)-5,6,7,8-tetrahydro[1,2,4]triazolo[1,5-a]pyridine]: the negative-log IC50 (pIC50) was 7.41.

With `COc1cc(/C=C/c2nc3n(n2)CCCC3c2cc(F)c(F)c(F)c2)cnc1-n1cnc(C)c1` (single isomer, unassigned) [Example 60, (−)-2-{(E)-2-[5-methoxy-6-(4-methyl-1H-imidazol-1-yl)pyridin-3-yl]vinyl}-8-(3,4,5-trifluorophenyl)-5,6,7,8-tetrahydro[1,2,4]triazolo[1,5-a]pyridine], the negative logarithm of the IC50 (pIC50) was 7.40.

Take `Cc1cn(-c2ccc(/C=C/c3nc4n(n3)CCCC4c3cc(F)c(F)c(F)c3)cc2F)cn1` (single isomer, unassigned) [Example 62, (−)-2-{(E)-2-[3-fluoro-4-(4-methyl-1H-imidazol-1-yl)phenyl]vinyl}-8-(3,4,5-trifluorophenyl)-5,6,7,8-tetrahydro[1,2,4]triazolo[1,5-a]pyridine]: the negative-log IC50 (pIC50) was 7.64.

For `COc1cc(/C=C/c2nc3n(n2)CCC[C@@H]3c2c(F)cc(F)cc2F)ccc1-n1cnc(C)c1` (single isomer, unassigned) [Example 64, (−)-2-{(E)-2-[3-methoxy-4-(4-methyl-1H-imidazol-1-yl)phenyl]vinyl}-8-(2,4,6-trifluorophenyl)-5,6,7,8-tetrahydro[1,2,4]triazolo[1,5-a]pyridine], the pIC50 was 7.55.

For the molecule `COc1cc(/C=C/c2nc3n(n2)CCCC3(O)c2cc(F)c(F)c(F)c2)ccc1-n1cnc(C)c1` (single isomer, unassigned) [Example 66, (−)-2-{(E)-2-[3-methoxy-4-(4-methyl-1H-imidazol-1-yl)phenyl]vinyl}-8-(3,4,5-trifluorophenyl)-5,6,7,8-tetrahydro[1,2,4]triazolo[1,5-a]pyridin-8-ol], the pIC50 was 7.70.

For the molecule `COc1cc(/C=C/c2nc3n(n2)CCC[C@@H]3c2cc(F)c(F)c(F)c2)c(F)cc1-n1cnc(C)c1` (single isomer, unassigned) [Example 69, (−)-2-{(E)-2-[2-fluoro-5-methoxy-4-(4-methyl-1H-imidazol-1-yl)phenyl]vinyl}-8-(3,4,5-trifluorophenyl)-5,6,7,8-tetrahydro[1,2,4]triazolo[1,5-a]pyridine], the pIC50 was 7.13.

Consider `COc1ccc([C@@H]2CCCn3nc(/C=C/c4ccc(-n5cnc(C)c5)c(OC)c4)nc32)cc1` (single isomer, unassigned) [Example 75, (−)-2-{(E)-2-[3-methoxy-4-(4-methyl-1H-imidazol-1-yl)phenyl]vinyl}-8-(4-methoxyphenyl)-5,6,7,8-tetrahydro-[1,2,4]triazolo[1,5-a]pyridine], for which the negative-log IC50 (pIC50) is 7.35.

In the case of `COc1cc(/C=C/c2nc3n(n2)CCO[C@H]3c2cc(F)c(F)c(F)c2)ccc1-n1cnc(C)c1` (single isomer, unassigned) [Example 77, (−)-2-{(E)-2-[3-methoxy-4-(4-methyl-1H-imidazol-1-yl)phenyl]vinyl}-8-(3,4,5-trifluorophenyl)-5,6-dihydro-8H-[1,2,4]triazolo[5,1-c][1,4]oxazine], the negative logarithm of the IC50 (pIC50) was 7.08.

For `COc1cc(/C=C/c2nc3n(n2)CCC3c2cc(F)c(F)c(F)c2)ccc1-n1cnc(C)c1` (single isomer, unassigned) [Example 113, (−)-2-{(E)-2-[3-methoxy-4-(4-methyl-1H-imidazol-1-yl)phenyl]vinyl}-7-(3,4,5-trifluorophenyl)-6,7-dihydro-5H-pyrrolo[1,2-b][1,2,4]triazole], the pIC50 was 7.49.

On to `COc1cc(/C=C/c2nc3n(n2)CCCC3c2cccc3ccccc23)ccc1-n1cnc(C)c1` (single isomer, unassigned) [Example 130, (+)-2-{(E)-2-[3-methoxy-4-(4-methyl-1H-imidazol-1-yl)phenyl]vinyl}-8-naphthalen-1-yl-5,6,7,8-tetrahydro[1,2,4]triazolo[1,5-a]pyridine], for which the pIC50 was 7.89.

As for `COc1cc(/C=C/c2nc3n(n2)CCOC3c2ccc(OC(F)(F)F)cc2)ccc1-n1cnc(C)c1` (single isomer, unassigned) [Example 135, (−)-2-{(E)-2-[3-methoxy-4-(4-methyl-1H-imidazol-1-yl)phenyl]vinyl}-8-(4-trifluoromethoxyphenyl)-5,6-dihydro-8H-[1,2,4]triazolo[5,1-c][1,4]oxazine], the pIC50 was 7.37.

In the case of `COc1cc(/C=C/c2nc3n(n2)CCC[C@@]3(O)c2cccc3ccccc23)ccc1-n1cnc(C)c1` (single isomer, unassigned) [Example 136, (−)-2-{(E)-2-[3-methoxy-4-(4-methyl-1H-imidazol-1-yl)phenyl]vinyl}-8-naphthalen-1-yl-5,6,7,8-tetrahydro[1,2,4]triazolo[1,5-a]pyridin-8-ol], the negative logarithm of the IC50 (pIC50) was 7.62.

As for `COc1cc(/C=C/c2nc3n(n2)CCO[C@H]3c2ccc(C)cc2)ccc1-n1cnc(C)c1` (single isomer, unassigned) [Example 138, (−)-2-{(E)-2-[3-methoxy-4-(4-methyl-1H-imidazol-1-yl)phenyl]vinyl}-8-p-tolyl-5,6-dihydro-8H-[1,2,4]triazolo[5,1-c][1,4]oxazine], the negative-log IC50 (pIC50) is 7.33.

Take `COc1cc(/C=C/c2nc3n(n2)CCC[C@@H]3c2ccc(Cl)cc2)ccc1-n1cnc(C)c1` (single isomer, unassigned) [Example 149, (−)-8-(4-chlorophenyl)-2-{(E)-2-[3-methoxy-4-(4-methyl-1H-imidazol-1-yl)phenyl]vinyl}-5,6,7,8-tetrahydro[1,2,4]triazolo[1,5-a]pyridine]: the negative-log IC50 (pIC50) was 7.68.
